Legend:
Staph spp 12 strains = assay: Detection of various strains of S. aureus in the presence of substrates; assay type: cell-based
[1] = test system: Candida glabrata NCPF 3943; assay: Nitroreductase detection on Columbia agar, colonies read under UV; assay type: cell-based; set-up: key to Intensity of fluorescence, Candida glabrata NCPF3943 / F: fluorescence (intensity), Candida glabrata NCPF 3943 / Intensity of the fluorescence, Candida glabrata NCPF 3943: − = no fluorescence detected; +/− = weak fluorescence; + = medium fluorescence; ++ = strong fluorescence; conditions: 100 mg/l in Columbia agar, 24 h 37° C., UV 360-365 nm
Protocol: (§1) A mass of 40 mg of each substrate was dissolved in 4 ml of dimethylformamide (DMF). This solution was entirely taken up in 400 ml of Columbia agar autoclaved beforehand and kept molten at 50° C. The final concentration for each substrate was 100 mg/l.
(§2) Each of the media was distributed into Petri dishes 90 mm in diameter, in a proportion of 20 ml per dish.
(§3) 18 microorganism strains derived from collections and belonging to various species of bacteria and of yeasts were inoculated onto these media by semi-quantitative isolation of 10 μl of a suspension at 0.5 McFarland diluted to 1/20. The media were incubated for 24 hours at 37° C., then the colonies formed were examined visually under UV illumination at 360-365 nm.

[2] = test system: Morganella morganii 462403 (wild); assay: as above; assay type: cell-based; set-up: key to Intensity of fluorescence, Morganella morganii 462403 / F: fluorescence (intensity), Morganella morganii 462403 (wild) / Intensity of the fluorescence, Morganella morganii 462403 (wild): − = no fluorescence detected; +/− = weak fluorescence; + = medium fluorescence; ++ = strong fluorescence; conditions: 100 mg/l in Columbia agar, 24 h 37° C., UV 360-365 nm
Protocol: as §1, §2, §3

MRSA NCTC 11939 = assay: as above; assay type: cell-based, Staphylococcus aureus; set-up: key: − = no fluorescence detected; +/− = weak fluorescence; + = medium fluorescence; ++ = strong fluorescence; conditions: 100 mg/l in Columbia agar, 24 h 37° C., UV 360-365 nm
Protocol: as §1, §2, §3

S. epidermidis 2 strains = assay: Detection of various strains of S. aureus in the presence of substrates; assay type: cell-based
Protocol: as §1, §2
18 microorganism strains derived from collections and belonging to various species of bacteria and of yeasts were inoculated onto these media by semi-quantitative isolation of 10 μl of a suspension at 0.5 McFarland diluted to 1/20. […]

[3] = test system: Acinetobacter baumanii ATCC 19606; assay: Nitroreductase detection on Columbia agar, colonies read under UV; assay type: cell-based; set-up: key to Intensity of fluorescence, Acinetobacter baumanii ATCC 19606 / Intensity of the fluorescence, Acinetobacter baumanii ATCC 19606: − = no fluorescence detected; +/− = weak fluorescence; + = medium fluorescence; ++ = strong fluorescence
Protocol: as §1, §2, §3

[4] = test system: Staphylococcus aureus NCTC 6571; assay: as above; assay type: cell-based; set-up: key: − = no fluorescence detected; +/− = weak fluorescence; + = medium fluorescence; ++ = strong fluorescence; conditions: 100 mg/l in Columbia agar, 24 h 37° C., UV 360-365 nm
Protocol: as §1, §2, §3

[5] = test system: Enterobacter cloacae NCTC 11936; assay: as above; assay type: cell-based; set-up: key: − = no fluorescence detected; +/− = weak fluorescence; + = medium fluorescence; ++ = strong fluorescence; conditions: 100 mg/l in Columbia agar, 24 h 37° C., UV 360-365 nm
Protocol: as §1, §2, §3

[6] = test system: Enterococcus faecalis NCTC 775; assay: as above; assay type: cell-based; set-up: key: − = no fluorescence detected; +/− = weak fluorescence; + = medium fluorescence; ++ = strong fluorescence; conditions: 100 mg/l in Columbia agar, 24 h 37° C., UV 360-365 nm
Protocol: as §1, §2, §3

[7] = test system: Serratia marcescens NCTC 10211; assay: as above; assay type: cell-based; set-up: key: − = no fluorescence detected; +/− = weak fluorescence; + = medium fluorescence; ++ = strong fluorescence; conditions: 100 mg/l in Columbia agar, 24 h 37° C., UV 360-365 nm
Protocol: as §1, §2, §3

[8] = test system: Yersinia enterocolitica NCTC 11176; assay: as above; assay type: cell-based; set-up: key: − = no fluorescence detected; +/− = weak fluorescence; + = medium fluorescence; ++ = strong fluorescence; conditions: 100 mg/l in Columbia agar, 24 h 37° C., UV 360-365 nm
Protocol: as §1, §2, §3

[9] = test system: Staphylococcus epidermidis NCTC 11047; assay: as above; assay type: cell-based; set-up: key: − = no fluorescence detected; +/− = weak fluorescence; + = medium fluorescence; ++ = strong fluorescence; conditions: 100 mg/l in Columbia agar, 24 h 37° C., UV 360-365 nm
Protocol: as §1, §2, §3

[10] = test system: Listeria monocytogenes NCTC 11994; assay: as above; assay type: cell-based; set-up: key: − = no fluorescence detected; +/− = weak fluorescence; + = medium fluorescence; ++ = strong fluorescence; conditions: 100 mg/l in Columbia agar, 24 h 37° C., UV 360-365 nm
Protocol: as §1, §2, §3

[11] = test system: Candida albicans ATCC 90028; assay: as above; assay type: cell-based; set-up: key: − = no fluorescence detected; +/− = weak fluorescence; + = medium fluorescence; ++ = strong fluorescence; conditions: 100 mg/l in Columbia agar, 24 h 37° C., UV 360-365 nm
Protocol: as §1, §2, §3

[12] = test system: Enterococcus faecium NCTC 7171; assay: as above; assay type: cell-based; set-up: key: − = no fluorescence detected; +/− = weak fluorescence; + = medium fluorescence; ++ = strong fluorescence; conditions: Table 4; 100 mg/l in Columbia agar, 24 h 37° C., UV 360-365 nm
Protocol: as §1, §2, §3

[13] = test system: Streptococcus pyogenes NCTC 8306; assay: as above; assay type: cell-based; set-up: key: − = no fluorescence detected; +/− = weak fluorescence; + = medium fluorescence; ++ = strong fluorescence; conditions: 100 mg/l in Columbia agar, 24 h 37° C., UV 360-365 nm
Protocol: as §1, §2, §3

[14] = test system: Providencia rettgeri NCTC 7475; assay: as above; assay type: cell-based; set-up: key: − = no fluorescence detected; +/− = weak fluorescence; + = medium fluorescence; ++ = strong fluorescence; conditions: Table 4; 100 mg/l in Columbia agar, 24 h 37° C., UV 360-365 nm
Protocol: as §1, §2, §3

[15] = test system: Bacillus subtilis NCTC 9372; assay: as above; assay type: cell-based; set-up: key: − = no fluorescence detected; +/− = weak fluorescence; + = medium fluorescence; ++ = strong fluorescence; conditions: 100 mg/l in Columbia agar, 24 h 37° C., UV 360-365 nm
Protocol: as §1, §2, §3

[16] = test system: Citrobacter freundii 46262 (wild); assay: as above; assay type: cell-based; set-up: key: − = no fluorescence detected; +/− = weak fluorescence; + = medium fluorescence; ++ = strong fluorescence; conditions: Table 4; 100 mg/l in Columbia agar, 24 h 37° C., UV 360-365 nm
Protocol: as §1, §2, §3

[17] = test system: Pseudomonas aeruginosa NCTC 10662; assay: as above; assay type: cell-based; set-up: key: − = no fluorescence detected; +/− = weak fluorescence; + = medium fluorescence; ++ = strong fluorescence; conditions: 100 mg/l in Columbia agar, 24 h 37° C., UV 360-365 nm
Protocol: as §1, §2, §3

[18] = test system: Escherichia coli NCTC 10418; assay: as above; assay type: cell-based; set-up: key: − = no fluorescence detected; +/− = weak fluorescence; + = medium fluorescence; ++ = strong fluorescence; conditions: 100 mg/l in Columbia agar, 24 h 37° C., UV 360-365 nm
Protocol: as §1, §2, §3

[19] = test system: Salmonella typhimurium NCTC 74; assay: as above; assay type: cell-based; set-up: key to Intensity of fluorescence, Salmonella typhimurium NCTC 74 / F: fluorescence (intensity), Salmonella typhimurium NCTC 74 / Intensity of the fluorescence, Salmonella typhimurium NCTC 74: − = no fluorescence detected; +/− = weak fluorescence; + = medium fluorescence; ++ = strong fluorescence
Protocol: as §1, §2, §3

Enterococcus 6 strains = assay: Detection of various strains of S. aureus in the presence of substrates; assay type: cell-based
[20] = test system: S. aureus (including MRSA) 10 strains; assay: as above; assay type: cell-based, Staphylococcus aureus; conditions: for No. of strains detected, S. aureus (including MRSA): 10 strains
[21] = 100 mg/l in Columbia agar, 24 h 37° C., UV 360-365 nm
[22] = Table 4, 100 mg/l in Columbia agar, 24 h 37° C., UV 360-365 nm

`O=[N+]([O-])c1ccc(F)cc1-c1nc2ccccc2s1` [Substrate 15] was tested, and the “No. of strains detected, Staph spp” value (Staph spp 12 strains; 24 h) was 12, the “No. of strains detected, Staph spp” value (Staph spp 12 strains; 48 h) was 12 and the “Intensity of fluorescence, Candida glabrata NCPF3943” value [1] was “−”. For the same compound, the “Intensity of the fluorescence, Candida glabrata NCPF 3943” value ([1]; Table 4) was “−”, the “Intensity of fluorescence, Morganella morganii 462403” value [2] was “++” and the “Intensity of the fluorescence, Morganella morganii 462403 (wild)” value ([2]; Table 4) was “++”. For the same compound, the “Intensity of fluorescence, Staphylococcus aureus NCTC 11939” value (MRSA NCTC 11939) was “++”, the “Intensity of the fluorescence, MRSA NCTC 11939” value (MRSA NCTC 11939; Table 4) was “++” and the “No. of strains detected, S. epidermidis” value (S. epidermidis 2 strains; 24 h) was 0. The “No. of strains detected, S. epidermidis” value (S. epidermidis 2 strains; 48 h) was 2, the “Intensity of fluorescence, Acinetobacter baumanii ATCC 19606” value [3, 21] was “+” and the “Intensity of the fluorescence, Acinetobacter baumanii ATCC 19606” value [3, 22] was “+”. For the same compound, the “Distinguishing Pseudomonas aeruginosa from Acinetobacter baumanii” value ([3]; table 2) was “make it possible to distinguish Pseudomonas aeruginosa from Acinetobacter baumanii”, the “Intensity of fluorescence, Staphylococcus aureus NCTC 6571” value [4] was “++” and the “Intensity of the fluorescence, Staphylococcus aureus NCTC 6571” value ([4]; Table 4) was “++”. The “Intensity of fluorescence, Enterobacter cloacae NCTC 11936” value [5] was “++”, the “Intensity of the fluorescence, Enterobacter cloacae NCTC 11936” value ([5]; Table 4) was “++” and the “Intensity of fluorescence, Enterococcus faecalis NCTC 775” value [6] was “−”. For the same compound, the “Intensity of the fluorescence, Enterococcus faecails NCTC 775” value ([6]; Table 4) was “−”, the “Intensity of fluorescence, Serratia marcescens NCTC 10211” value [7] was “++” and the “Intensity of the fluorescence, Serratia marcescens NCTC 10211” value ([7]; Table 4) was “++”. The “Intensity of fluorescence, Yersinia enterocolitica NCTC 11176” value [8] was “−”, the “Intensity of the fluorescence, Yersinia enterocolitica NCTC 11176” value ([8]; Table 4) was “−” and the “Intensity of fluorescence, Staphylococcus epidermidis NCTC 11047” value [9] was “−”. For the same compound, the “Intensity of the fluorescence, Staphylococcus epidermidis NCTC 11047” value ([9]; Table 4) was “−”, the “Intensity of fluorescence, Listeria monocytogenes NCTC 11994” value [10] was “−” and the “Intensity of the fluorescence, Listeria monocytogenes NCTC 11994” value ([10]; Table 4) was “−”. The “Intensity of fluorescence, Candida albicans ATCC 90028” value [11] was “−”, the “Intensity of the fluorescence, Candida albicans ATCC 90028” value ([11]; Table 4) was “−” and the “Intensity of the fluorescence, Enterococcus faecium NCTC 7171” value [12] was “−”. For the same compound, the “Intensity of fluorescence, Streptococcus pyogenes NCTC 8306” value [13] was “−”, the “Intensity of the fluorescence, Streptococcus pyogenes NCTC 8306” value ([13]; Table 4) was “−” and the “Intensity of the fluorescence, Providencia rettgeri NCTC 7475” value [14] was “++”. For the same compound, the “Intensity of fluorescence, Bacillus subtilis NCTC 9372” value [15] was “−”, the “Intensity of the fluorescence, Bacillus subtilis NCTC 9372” value ([15]; Table 4) was “−” and the “Intensity of the fluorescence, Citrobacter freundii 46262 (wild)” value [16] was “++”. For the same compound, the “Intensity of fluorescence, Pseudomonas aeruginosa NCTC 10662” value [17] was “−”, the “Intensity of the fluorescence, Pseudomonas aeruginosa NCTC 10662” value ([17]; Table 4) was “+” and the “Intensity of fluorescence, Escherichia coli NCTC 10418” value [18] was “++”. The “Intensity of the fluorescence, Escherichia coli NCTC 10418” value ([18]; Table 4) was “++”, the “Intensity of fluorescence, Salmonella typhimurium NCTC 74” value [19, 21] was “++” and the “Intensity of the fluorescence, Salmonella typhimurium NCTC 74” value [19, 22] was “++”. The “Salmonella typhimurium result with the substrate” value ([19]; table 2) was “strongly positive”, the “No. of strains detected, Enterococcus” value (Enterococcus 6 strains; 24 h) was 0 and the “No. of strains detected, Enterococcus” value (Enterococcus 6 strains; 48 h) was 1. For the same compound, the “Distinguishing or identifying Staphylococcus aureus strains, in particular MRSA, from most of the other Gram-positive bacterial strains” value [20] was “make it possible to distinguish or identify the Staphylococcus aureus strains”, the “No. of strains detected, S. aureus (including MRSA)” value ([20]; 24 h) was 10 and the “No. of strains detected, S. aureus (including MRSA)” value ([20]; 48 h) was 10.

— US8211662B2, “Nitroreductase enzymatic substrates” (Biomerieux, priority 2007, dated 2012)
